Measured values taken from ChEMBL document CHEMBL1201862, “PubChem BioAssay data set” (2004).
The source made the active and inactive calls.

Columns and labels:
Ion channel NompC = Ion channel NompC (Danio rerio, UniProt Q7T1G6); test: Dose response cell-based high-throughput screening assay for agonists of the transient receptor potential channel N1 (TRPN1). [Related pubchem assays (depositor defined):AID1424, AID1448]; type: functional
Mucolipin-3 = molecular target: T1, Mucolipin-3 (Homo sapiens, UniProt Q8TDD5); test: Fluorescence counterscreen assay for […] agonists: dose response cell-based high-throughput screening assay to identify agonists of the transient receptor potential channel ML3 (TRPML3). [Related pubchem assays: 1424, 1448 ]; type: functional
T1 sequence (Q8TDD5 whole entry): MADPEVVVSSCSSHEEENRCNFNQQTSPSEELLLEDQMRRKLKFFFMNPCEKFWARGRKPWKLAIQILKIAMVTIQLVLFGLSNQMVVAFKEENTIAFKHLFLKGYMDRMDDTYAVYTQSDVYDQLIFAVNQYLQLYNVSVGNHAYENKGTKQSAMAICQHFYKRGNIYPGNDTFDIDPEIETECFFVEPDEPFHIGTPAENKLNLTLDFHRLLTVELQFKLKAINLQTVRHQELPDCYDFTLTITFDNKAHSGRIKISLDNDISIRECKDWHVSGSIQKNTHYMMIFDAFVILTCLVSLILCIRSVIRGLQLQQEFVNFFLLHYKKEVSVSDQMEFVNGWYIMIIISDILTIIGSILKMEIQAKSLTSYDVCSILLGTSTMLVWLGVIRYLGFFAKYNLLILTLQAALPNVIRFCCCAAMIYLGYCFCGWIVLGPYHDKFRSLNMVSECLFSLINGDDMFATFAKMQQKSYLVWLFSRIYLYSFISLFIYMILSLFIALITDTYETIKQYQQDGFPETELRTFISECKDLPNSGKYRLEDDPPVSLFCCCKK

[1] = molecular target: T2, Kappa-type opioid receptor (Homo sapiens, UniProt P41145); type: functional
T2 sequence (P41145 whole entry): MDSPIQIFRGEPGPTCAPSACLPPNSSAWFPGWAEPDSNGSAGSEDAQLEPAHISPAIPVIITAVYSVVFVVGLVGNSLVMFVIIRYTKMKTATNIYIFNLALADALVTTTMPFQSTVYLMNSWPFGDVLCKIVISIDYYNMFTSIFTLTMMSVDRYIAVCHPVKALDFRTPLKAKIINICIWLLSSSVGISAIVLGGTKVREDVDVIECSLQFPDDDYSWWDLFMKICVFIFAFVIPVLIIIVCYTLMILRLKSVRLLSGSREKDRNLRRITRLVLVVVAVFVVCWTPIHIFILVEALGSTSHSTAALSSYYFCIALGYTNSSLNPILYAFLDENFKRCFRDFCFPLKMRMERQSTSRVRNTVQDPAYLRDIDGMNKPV

[2] = molecular target: T3, Delta-type opioid receptor (Homo sapiens, UniProt P41143); test: HTS Image-Based Screen for Antagonists of the DOR Receptor. [Related pubchem assays (depositor defined):AID1777, AID1785, AID1786, AID2133]; type: functional
T3 sequence (P41143 whole entry): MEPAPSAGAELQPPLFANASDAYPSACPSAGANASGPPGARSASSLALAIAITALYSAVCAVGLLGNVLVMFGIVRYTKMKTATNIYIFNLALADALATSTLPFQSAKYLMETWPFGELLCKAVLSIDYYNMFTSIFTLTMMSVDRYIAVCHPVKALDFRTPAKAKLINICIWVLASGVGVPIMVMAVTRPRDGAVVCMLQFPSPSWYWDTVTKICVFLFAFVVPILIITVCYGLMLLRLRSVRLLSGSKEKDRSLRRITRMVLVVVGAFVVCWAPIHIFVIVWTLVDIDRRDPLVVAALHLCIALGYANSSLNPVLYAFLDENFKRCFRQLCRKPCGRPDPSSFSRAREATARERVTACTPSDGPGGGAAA

[3] = molecular target: T3, Delta-type opioid receptor; test: HTS Image-Based Screen for Agonists of the DOR Receptor. [Related pubchem assays (depositor defined):AID1777, AID1786, AID2133]; type: functional
Beta-galactosidase = Beta-galactosidase (Escherichia coli, UniProt Q8VNN2); type: functional
Mu-type opioid receptor = Mu-type opioid receptor (Homo sapiens, UniProt P35372); test: HTS Image-Based Screen for Agonists of the MOR Receptor. [Related pubchem assays (depositor defined):AID1777, AID1785, AID1786, AID2133]; type: functional;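 also: imaging of beta-arrestin GFP recruitment into spots after receptor activation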
[4] = molecular target: T2, Kappa-type opioid receptor; type: functional; remark: listed apart in the source
Troponin, cardiac muscle = Troponin, cardiac muscle (Homo sapiens, UniProt P19429+P45379+P63316); test: Fluorescence-based biochemical high throughput dose response assay for activators of the calcium sensitivity of cardiac Regulated Thin Filaments (RTF). [Related pubchem assays (depositor defined):AID493008, AID493018, AID504382, AID504383]; type: protein-complex assay
[5] = molecular target: T4, Small ubiquitin-related modifier 1 (Homo sapiens, UniProt P63165); test: inhibitors of SUMO1 partner interactions, dose response, biochemical, FRET (AID 624383); type: functional; conditions: read-out: IC50_Mean
T4 sequence (P63165 whole entry): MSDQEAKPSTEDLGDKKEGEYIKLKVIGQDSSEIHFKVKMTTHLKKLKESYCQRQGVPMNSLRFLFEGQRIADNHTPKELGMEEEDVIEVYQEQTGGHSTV

[6] = molecular target: 26S proteasome non-ATPase regulatory subunit 14 (Homo sapiens, UniProt O00487); test: inhibition of proteasome subunit RPN11 – biochemical, fluorescence polarization, uHTS hits, confirmation (AID 602368); type: functional
[7] = molecular target: 72 kDa type IV collagenase (Homo sapiens, UniProt P08253); test: Dose Response validation of uHTS RPN11 inhibitor hits using a MMP-2 Fluorescence assay.; type: functional
[8] = molecular target: T5, Voltage-gated N-type calcium channel alpha-1B subunit/Amyloid beta A4 precursor protein-binding family A member 1 (Homo sapiens, UniProt Q00975+Q02410); type: protein assay
T5 sequence (Q00975 whole entry): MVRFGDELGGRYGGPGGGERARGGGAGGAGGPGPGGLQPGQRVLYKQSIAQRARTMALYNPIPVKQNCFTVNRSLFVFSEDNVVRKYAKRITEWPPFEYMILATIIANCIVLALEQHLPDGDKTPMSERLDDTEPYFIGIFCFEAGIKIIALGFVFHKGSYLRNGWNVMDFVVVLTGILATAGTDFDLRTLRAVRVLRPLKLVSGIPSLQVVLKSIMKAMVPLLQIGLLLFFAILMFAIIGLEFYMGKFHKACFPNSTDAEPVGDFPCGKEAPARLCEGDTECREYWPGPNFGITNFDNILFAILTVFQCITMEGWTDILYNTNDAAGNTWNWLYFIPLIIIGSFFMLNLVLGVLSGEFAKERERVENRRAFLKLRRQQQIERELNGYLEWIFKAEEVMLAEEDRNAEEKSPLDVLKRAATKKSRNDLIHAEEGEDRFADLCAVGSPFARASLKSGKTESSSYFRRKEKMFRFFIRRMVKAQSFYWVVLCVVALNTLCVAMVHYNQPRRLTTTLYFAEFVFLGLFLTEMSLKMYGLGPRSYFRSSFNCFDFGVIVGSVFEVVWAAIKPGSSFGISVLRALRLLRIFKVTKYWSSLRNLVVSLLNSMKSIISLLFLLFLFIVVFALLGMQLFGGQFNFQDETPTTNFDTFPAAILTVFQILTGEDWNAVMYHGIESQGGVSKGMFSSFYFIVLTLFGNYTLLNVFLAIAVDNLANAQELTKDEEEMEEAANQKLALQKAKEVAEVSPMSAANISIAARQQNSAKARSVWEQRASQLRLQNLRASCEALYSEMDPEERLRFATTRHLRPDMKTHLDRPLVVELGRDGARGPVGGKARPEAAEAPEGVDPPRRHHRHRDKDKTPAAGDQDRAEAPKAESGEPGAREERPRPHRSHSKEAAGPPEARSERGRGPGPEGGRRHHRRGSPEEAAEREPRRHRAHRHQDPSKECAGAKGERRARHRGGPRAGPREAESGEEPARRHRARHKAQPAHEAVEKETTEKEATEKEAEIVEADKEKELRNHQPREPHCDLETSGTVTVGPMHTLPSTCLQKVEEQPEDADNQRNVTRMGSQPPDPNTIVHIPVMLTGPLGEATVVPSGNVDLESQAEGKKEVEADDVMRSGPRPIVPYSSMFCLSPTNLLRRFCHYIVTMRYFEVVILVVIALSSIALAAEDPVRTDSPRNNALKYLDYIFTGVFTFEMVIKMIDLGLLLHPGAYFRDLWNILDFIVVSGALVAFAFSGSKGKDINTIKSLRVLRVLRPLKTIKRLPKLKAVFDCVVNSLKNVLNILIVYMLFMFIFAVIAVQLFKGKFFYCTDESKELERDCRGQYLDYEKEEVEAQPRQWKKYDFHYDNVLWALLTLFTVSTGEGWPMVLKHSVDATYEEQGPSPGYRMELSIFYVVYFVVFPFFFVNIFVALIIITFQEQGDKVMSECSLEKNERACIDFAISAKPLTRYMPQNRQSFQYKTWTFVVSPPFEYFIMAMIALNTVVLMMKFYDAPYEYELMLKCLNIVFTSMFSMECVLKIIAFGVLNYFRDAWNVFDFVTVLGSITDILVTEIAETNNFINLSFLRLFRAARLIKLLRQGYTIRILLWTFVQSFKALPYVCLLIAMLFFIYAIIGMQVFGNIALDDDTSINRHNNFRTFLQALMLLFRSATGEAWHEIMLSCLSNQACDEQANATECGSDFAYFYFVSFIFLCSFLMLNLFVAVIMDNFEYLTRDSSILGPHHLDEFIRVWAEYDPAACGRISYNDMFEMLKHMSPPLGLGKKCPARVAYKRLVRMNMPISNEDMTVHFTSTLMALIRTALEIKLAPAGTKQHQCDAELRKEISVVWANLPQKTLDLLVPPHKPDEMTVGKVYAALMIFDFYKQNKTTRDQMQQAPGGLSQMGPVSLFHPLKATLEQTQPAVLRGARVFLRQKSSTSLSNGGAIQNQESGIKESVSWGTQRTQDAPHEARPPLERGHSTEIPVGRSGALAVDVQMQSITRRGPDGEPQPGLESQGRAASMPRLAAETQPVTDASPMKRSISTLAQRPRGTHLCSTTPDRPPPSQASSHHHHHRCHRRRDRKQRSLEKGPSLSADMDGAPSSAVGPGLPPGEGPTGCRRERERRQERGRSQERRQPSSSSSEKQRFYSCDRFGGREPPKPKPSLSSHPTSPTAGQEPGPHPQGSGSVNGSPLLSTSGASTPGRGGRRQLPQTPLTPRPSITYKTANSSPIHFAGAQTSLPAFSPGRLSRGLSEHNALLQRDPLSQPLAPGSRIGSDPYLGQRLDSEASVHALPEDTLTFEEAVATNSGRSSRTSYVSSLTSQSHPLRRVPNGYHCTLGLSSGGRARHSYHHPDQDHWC
T5 sequence (Q02410 whole entry): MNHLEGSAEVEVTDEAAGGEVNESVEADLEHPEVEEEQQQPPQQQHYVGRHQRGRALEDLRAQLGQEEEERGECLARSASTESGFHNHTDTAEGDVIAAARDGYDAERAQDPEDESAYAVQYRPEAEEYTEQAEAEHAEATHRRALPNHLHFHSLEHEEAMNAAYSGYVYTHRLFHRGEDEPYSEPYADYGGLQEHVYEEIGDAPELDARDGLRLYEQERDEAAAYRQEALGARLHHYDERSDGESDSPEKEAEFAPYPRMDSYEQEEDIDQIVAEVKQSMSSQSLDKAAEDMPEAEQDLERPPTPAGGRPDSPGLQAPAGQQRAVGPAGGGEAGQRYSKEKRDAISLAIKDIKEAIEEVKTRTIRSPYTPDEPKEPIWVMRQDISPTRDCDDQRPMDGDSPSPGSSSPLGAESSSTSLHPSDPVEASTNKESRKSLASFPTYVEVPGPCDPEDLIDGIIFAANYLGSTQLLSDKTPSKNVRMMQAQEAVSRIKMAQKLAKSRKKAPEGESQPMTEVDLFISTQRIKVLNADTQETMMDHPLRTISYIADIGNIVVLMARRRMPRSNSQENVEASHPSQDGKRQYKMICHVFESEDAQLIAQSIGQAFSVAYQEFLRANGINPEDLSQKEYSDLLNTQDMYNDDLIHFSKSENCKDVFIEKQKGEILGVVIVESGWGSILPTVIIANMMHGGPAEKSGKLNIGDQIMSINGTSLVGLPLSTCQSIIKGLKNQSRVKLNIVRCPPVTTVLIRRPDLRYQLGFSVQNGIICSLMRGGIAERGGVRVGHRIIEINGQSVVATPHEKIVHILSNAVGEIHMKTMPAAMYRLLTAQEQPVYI

[9] = molecular target: T6, Tyrosine-protein phosphatase non-receptor type 22 (Homo sapiens, UniProt Q9Y2R2); type: functional
T6 sequence (Q9Y2R2 whole entry): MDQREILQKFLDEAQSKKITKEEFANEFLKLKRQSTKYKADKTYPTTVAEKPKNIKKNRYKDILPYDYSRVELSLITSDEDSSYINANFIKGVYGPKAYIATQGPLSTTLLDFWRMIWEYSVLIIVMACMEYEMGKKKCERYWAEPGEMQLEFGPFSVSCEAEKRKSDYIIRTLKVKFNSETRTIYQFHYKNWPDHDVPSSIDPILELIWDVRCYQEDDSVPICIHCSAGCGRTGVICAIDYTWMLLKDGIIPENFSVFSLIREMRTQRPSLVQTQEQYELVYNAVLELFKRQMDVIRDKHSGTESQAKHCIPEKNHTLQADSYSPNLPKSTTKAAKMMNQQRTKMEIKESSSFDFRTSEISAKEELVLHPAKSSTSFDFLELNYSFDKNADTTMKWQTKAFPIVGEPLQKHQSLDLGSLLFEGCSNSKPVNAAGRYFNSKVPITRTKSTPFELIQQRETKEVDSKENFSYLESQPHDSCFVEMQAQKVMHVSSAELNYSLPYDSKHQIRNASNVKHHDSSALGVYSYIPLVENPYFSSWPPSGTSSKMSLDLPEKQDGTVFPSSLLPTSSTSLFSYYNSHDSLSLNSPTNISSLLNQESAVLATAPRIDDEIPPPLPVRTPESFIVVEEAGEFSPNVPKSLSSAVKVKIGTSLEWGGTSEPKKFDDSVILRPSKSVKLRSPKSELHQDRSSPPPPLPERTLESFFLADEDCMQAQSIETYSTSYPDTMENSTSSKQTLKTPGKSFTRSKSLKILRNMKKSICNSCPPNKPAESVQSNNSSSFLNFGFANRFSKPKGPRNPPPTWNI

[10] = molecular target: T5, Voltage-gated N-type calcium channel alpha-1B subunit/Amyloid beta A4 precursor protein-binding family A member 1; type: protein assay; remark: listed apart in the source
[11] = molecular target: T7, Dual specificity protein phosphatase 3 (Homo sapiens, UniProt P51452); test: SAR VHR1 Fluorescent Assay for In Vitro dose response studies. [Related pubchem assays (depositor defined):AID1654, AID1661, AID1878, AID1992, AID2004, AID2070, AID2085]; type: functional
T7 sequence (P51452 whole entry): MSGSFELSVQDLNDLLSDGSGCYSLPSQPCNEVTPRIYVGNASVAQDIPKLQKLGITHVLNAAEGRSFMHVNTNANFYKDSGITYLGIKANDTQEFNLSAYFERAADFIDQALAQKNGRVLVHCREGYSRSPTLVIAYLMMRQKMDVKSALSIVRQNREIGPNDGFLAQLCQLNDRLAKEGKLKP

[12] = molecular target: Induced myeloid leukemia cell differentiation protein Mcl-1 (Homo sapiens, UniProt Q07820); type: functional
[13] = molecular target: Eukaryotic translation initiation factor 4E (Mus musculus, UniProt P63073); test: eIF4E–eIF4G protein interaction inhibitors, dose response, biochemical, TR-FRET (AID 855); type: functional;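 also: potency for disrupting eIF4E binding to eIF4GI seen as loss of FRET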
[14] = molecular target: T7, Dual specificity protein phosphatase 3; test: SAR VHR1 Fluorescent Assay for In Vitro dose response studies Set 2. [Related pubchem assays (depositor defined):AID1654, AID1661, AID1878]; type: functional
[15] = molecular target: T8, Tyrosine-protein phosphatase non-receptor type 7 (Homo sapiens, UniProt P35236); type: functional
T8 sequence (P35236 whole entry): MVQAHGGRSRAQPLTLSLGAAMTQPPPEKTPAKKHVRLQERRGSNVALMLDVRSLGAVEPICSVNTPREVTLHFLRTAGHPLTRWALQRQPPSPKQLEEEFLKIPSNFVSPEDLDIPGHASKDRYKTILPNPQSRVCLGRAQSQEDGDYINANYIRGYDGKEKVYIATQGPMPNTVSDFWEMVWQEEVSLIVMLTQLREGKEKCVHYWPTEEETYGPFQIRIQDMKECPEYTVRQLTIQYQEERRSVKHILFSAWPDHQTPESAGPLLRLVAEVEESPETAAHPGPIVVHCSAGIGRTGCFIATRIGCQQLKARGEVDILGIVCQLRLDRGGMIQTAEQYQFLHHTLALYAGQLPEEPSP

[16] = molecular target: T9, Dual specificity protein phosphatase 6 (Rattus norvegicus, UniProt Q64346); test: MKP-3 phosphatase inhibitors, primary screen, biochemical, rat enzyme, in vitro (AID 425)
T9 sequence (Q64346 whole entry): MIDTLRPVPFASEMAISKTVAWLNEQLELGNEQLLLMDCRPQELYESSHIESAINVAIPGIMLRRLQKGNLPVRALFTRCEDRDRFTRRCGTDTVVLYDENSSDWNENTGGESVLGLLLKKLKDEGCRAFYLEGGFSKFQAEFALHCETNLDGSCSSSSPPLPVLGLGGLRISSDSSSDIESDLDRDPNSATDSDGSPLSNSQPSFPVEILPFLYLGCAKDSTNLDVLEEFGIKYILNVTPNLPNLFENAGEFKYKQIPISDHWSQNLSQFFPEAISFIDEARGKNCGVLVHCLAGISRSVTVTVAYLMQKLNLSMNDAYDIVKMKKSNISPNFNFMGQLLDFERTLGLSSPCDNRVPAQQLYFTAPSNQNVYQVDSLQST

[17] = molecular target: T7, Dual specificity protein phosphatase 3; test: VHR1 phosphatase inhibitors, primary screen, biochemical, absorbance, uHTS (AID 1654)
[18] = molecular target: T9, Dual specificity protein phosphatase 6; type: functional
[19] = molecular target: T6, Tyrosine-protein phosphatase non-receptor type 22; type: functional; remark: listed apart in the source
[20] = molecular target: T7, Dual specificity protein phosphatase 3; test: SAR VHR1 absorbance Assay for In Vitro dose response studies. [Related pubchem assays (depositor defined):AID1654, AID1661, AID1878, AID1992, AID2004]
[21] = molecular target: T7, Dual specificity protein phosphatase 3; test: VHR1 phosphatase inhibitors, biochemical (AID 1878)
Prothrombin = Prothrombin (Bos taurus, UniProt P00735); test: thrombin inhibition, dose response, biochemical, fluorescence polarization, uHTS hits (AID 602369); type: functional
NS3 = NS3 (Hepatitis C virus, UniProt A3EZJ3); test: PubChem AID 2173; set-up: species or system Hepacivirus hominis
[22] = molecular target: T8, Tyrosine-protein phosphatase non-receptor type 7; test: redox-dependent HePTP inhibition, mechanism study, biochemical, fluorescence (AID 2068); type: functional
[23] = molecular target: T4, Small ubiquitin-related modifier 1; test: inhibitors of SUMO1 peptide binding, dose response, biochemical, fluorescence polarization, uHTS hits (AID 624382); type: functional; conditions: read-out: IC50_Mean
Cannabinoid receptor 1 [24] = molecular target: T10, Cannabinoid receptor 1 (Homo sapiens, UniProt P21554); test: SAR analysis of antagonists of the Cannabinoid Receptor 1 using an Image-Based Assay - Set 4. [Related pubchem assays (depositor defined):AID2013, AID2026]; type: functional
[25] = molecular target: T11, G-protein coupled receptor 35 (Homo sapiens, UniProt Q9HC97); test: SAR analysis of Antagonists of the GPR35 Receptor using an Image-Based Assay - Set 6. [Related pubchem assays (depositor defined):AID2013, AID2026]; type: functional
T11 sequence (Q9HC97 whole entry): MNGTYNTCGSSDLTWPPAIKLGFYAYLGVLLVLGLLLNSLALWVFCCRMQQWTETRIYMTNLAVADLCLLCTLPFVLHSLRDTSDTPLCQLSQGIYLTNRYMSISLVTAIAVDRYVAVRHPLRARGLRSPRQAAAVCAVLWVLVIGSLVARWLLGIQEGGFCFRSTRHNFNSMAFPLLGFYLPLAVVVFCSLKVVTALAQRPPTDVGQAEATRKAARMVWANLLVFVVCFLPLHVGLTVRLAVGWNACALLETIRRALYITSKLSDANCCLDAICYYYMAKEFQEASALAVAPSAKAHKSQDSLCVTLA

Cannabinoid receptor 2 [26] = molecular target: T12, Cannabinoid receptor 2 (Homo sapiens, UniProt P34972); test: SAR analysis of antagonists of the Cannabinoid Receptor 2 using an Image-Based Assay - Set 3. [Related pubchem assays (depositor defined):AID2013, AID2026]; type: functional
T12 sequence (P34972 whole entry): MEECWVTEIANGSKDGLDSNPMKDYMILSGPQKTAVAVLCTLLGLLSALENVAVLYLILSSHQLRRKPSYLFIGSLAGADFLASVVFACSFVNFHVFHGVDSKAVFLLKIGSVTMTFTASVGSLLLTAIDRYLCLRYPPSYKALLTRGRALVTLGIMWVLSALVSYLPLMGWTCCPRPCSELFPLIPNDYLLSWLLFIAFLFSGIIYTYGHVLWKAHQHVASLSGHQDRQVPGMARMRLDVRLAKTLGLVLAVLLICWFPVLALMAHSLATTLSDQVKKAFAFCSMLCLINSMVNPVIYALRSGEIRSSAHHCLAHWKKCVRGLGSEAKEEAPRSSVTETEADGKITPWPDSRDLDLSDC

Cannabinoid receptor 2 [27] = molecular target: T12, Cannabinoid receptor 2; test: SAR analysis of agonists of the Cannabinoid Receptor 2 using an Image-Based Assay - Set 3. [Related pubchem assays (depositor defined):AID2013, AID2026]; type: functional
[28] = molecular target: T11, G-protein coupled receptor 35; test: SAR analysis of Agonists of the GPR35 Receptor using an Image-Based Assay - Set 4. [Related pubchem assays (depositor defined):AID2013, AID2026]; type: functional
[29] = molecular target: G-protein coupled receptor 55 (Homo sapiens, UniProt Q9Y2T6); test: SAR Analysis of Selective Antagonists of GPR55 using an Image-Based Assay - Set 4. [Related pubchem assays (depositor defined):AID2013, AID2026]; type: functional;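 also: antagonism of response to 5 µM lysophosphatidylinositol agonist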
Cannabinoid receptor 1 [30] = molecular target: T10, Cannabinoid receptor 1; test: SAR analysis of agonists of the Cannabinoid Receptor 1 using an Image-Based Assay - Set 4. [Related pubchem assays (depositor defined):AID2013, AID2026]; type: functional
[31] = molecular target: T2, Kappa-type opioid receptor; test: SAR analysis of small molecule agonists of the kappa opioid receptor via a luminescent beta-arrestin assay - Set 3. [Related pubchem assays (depositor defined):AID1777, AID1785, AID1786, AID1966, AID2133, AID2136, AID2284, AID2500]; type: functional

O=c1oc2c3c4c(cc2c(C(F)(F)F)c1CCN1CCOCC1)CCCN4CCC3
EC50 (Ion channel NompC): > 3.32 µM (inactive)
EC50 (Mucolipin-3): 4.56 µM (active)

COc1ccc(S(=O)(=O)N(CC(=O)Nc2ccc(S(=O)(=O)N3CCOCC3)cc2)c2ccccc2)cc1
IC50 [1]: 2.82 µM (active)
IC50 [2]: > 32 µM (inactive)
EC50 [3]: > 32 µM (inactive)
EC50 (Beta-galactosidase): > 31.5 µM (inactive)
EC50 (Mu-type opioid receptor): > 32 µM (inactive)
IC50 [4]: 4.04 µM

C=CCN1C(=O)/C(=C/c2ccc(N3CCOCC3)o2)C(=O)NC1=S
EC50 (Troponin, cardiac muscle): 5.95 µM (active)

CCOC(=O)c1sc2nc3c(SCCC(=O)O)cc(C(=O)c4cc(OC)ccc4O)cn3c(=O)c2c1C
IC50 [5]: 5.54 µM (active)
IC50 [6]: 8.13 µM (active)
IC50 [7]: 1.04 µM (active)
IC50 [8]: 36.2 µM (active)
IC50 [9]: 7.26 µM (active)
IC50 [10]: 8.15 µM (active)
IC50 [11]: 0.48 µM (active)
IC50 [12]: 1.24 µM (active)
IC50 [13]: 50 µM (inactive)
IC50 [14]: < 0.195 µM (active)
IC50 [15]: 1.68 µM (active)
IC50 [16]: 101 µM (not active)
IC50 [17]: 4.87 µM (active)
IC50 [18]: 59.5 µM (active)
IC50 [19]: 2.02 µM (active)
IC50 [20]: 1.29 µM (active)
IC50 [21]: < 1.23 µM (inactive)
IC50 (Prothrombin): 72.5 µM (active)
IC50 (NS3): 2.58 µM (active)
IC50 [22]: 0.209 µM (active)
IC50 [23]: > 66.6 µM (inactive)

Cc1ccc(-n2cc3c(-c4ccc(Cl)cc4)nnc(C)c3n2)cc1
IC50 (Cannabinoid receptor 1 [24]): 0.87 µM (active)
IC50 [25]: > 32 µM (inactive)
IC50 (Cannabinoid receptor 2 [26]): 29.8 µM (inactive)
EC50 (Cannabinoid receptor 2 [27]): > 32 µM (inactive)
EC50 [28]: > 32 µM (inactive)
IC50 [29]: 6.13 µM (active)
EC50 (Cannabinoid receptor 1 [30]): > 32 µM (inactive)

c1ccc(CSc2nnc(-c3ccncc3)n2Cc2ccco2)cc1
EC50 [31]: > 20 µM (inactive)
